Source: patent US20080160552A1, “Methods and Compounds for Treating Inflammation” (priority 2006, published 2008)

System: HPAE cells
Test: Transendothelial electrical resistance (TER) measurement after thrombin
Assay type: cell-based, Human
Settings: pretreated with 1 uM Go6976 for 30 min, 50 nM thrombin
From the text: FIG. 7. Effects of C1-S96A mutant on MLC phosphorylation, actin stress fiber formation, and loss of endothelial barrier function in response to thrombin. A-B, MLC phosphorylation in response to thrombin in cells transfected with C1 or C1-S96A-GDI-1 mutant. Cells were stimulated with thrombin for indicated time and lysates were Western blotted with anti-phospho-MLC (top) or anti-GFP Abs to determine MLC phosphorylation. […] C, Actin stress fiber formation in response to thrombin in cells transducing GFP-tagged C1 or GFP-tagged C1-S96A mutant. Cells were stimulated with thrombin for 5 min and fixed followed by staining with Alexa-labeled phallodin to determine actin stress fiber formation by confocal imaging. […] TER values are calculated as change in resistance over the value at time zero (n=7). […] After 30 hrs cells were pretreated with 1 uM Go6976 to inhibit PKCα for 30 min and changes in transendothelial electrical resistance (TER) after addition of 50 nM thrombin were determined. TER values are calculated as change in resistance over the value at time zero (n=8). […]
Transendothelial resistance measurement: The time course of endothelial cell retraction in real time, a measure of increased endothelial permeability, was measured according to the procedure described previously (16, 23).

In the case of `Cn1c2ccccc2c2c3c(c4c5ccccc5n(CCC#N)c4c21)CNC3=O` [G66976], the “thrombin-induced decrease in TER” value (HPAE cells transducing C1-GDI-1 mutant) is reported as “significantly reduced” and the “thrombin-induced decrease in TER” value (HPAE cells transducing S91A (S96A) GDI-1 mutant) is reported as “not seen”.
